Patent US11708376B2 (VIRGINIA TECH INTELLECTUAL PROPERTIES, INC., priority 2018, dated 2023)

system: whole cells (NMuLi, C2Cl2, and L6 cells, isolated cardiomyocytes, human primary fibroblasts); assay: Oxygen consumption rate (OCR) in whole cells, Seahorse XF-24 Flux Analyzer; format: cell-based; conditions: cell type for Table 1 not stated, read-out: OCR Activity (increase in OCR), binned EC50
Protocol: Biological activities of the compounds synthesized is determined by determining increase in oxygen consumption rate (OCR).
Oxygen consumption rate (OCR) in whole cells is measured in general accordance with the method of Kenwood B M et al. (Mol. Met. (2014) 3: 114-123).
OCR is measured using a Seahorse XF-24 Flux Analyzer (Seahorse Biosciences, North Billerica, Mass.). NMuLi, C2Cl2, and L6 cells are seeded in a Seahorse 24-well tissue culture plate at a density of 3.5×10^4 cells/well, isolated cardiomyocytes at a density of 4×10^4 cells/well, and human primary fibroblasts at a density of 1.1×10^4 cells/well. The cells are then allowed to adhere for 24 h. Prior to the assay, the media is changed to unbuffered DMEM containing pyruvate and glutamine (Gibco #12800-017, pH=7.4 at 37° C.) and the cells are equilibrated for 30 mins at 37° C. Compounds are injected during the assay and OCR is measured using 2 min measurement periods.
2-3 wells are used per condition and averaged over three plates (n=6-9). Statistical significance is determined by two-way ANOVA with Bonfenoni's posttest.
Activities are reported as binned EC50 values: A=5 μM or less; B=>5 to 20 μM; C=over 20 μM; NA=no effect.

`COc1nc2[nH]c(C(F)(F)F)nc2nc1Nc1ccc(OC(F)(F)F)cc1F` [Compound 2-21, 6-methoxy-N-(2-fluoro-4-(trifluoromethoxy)phenyl)-2-(trifluoromethyl)-1H-imidazo[4,5-b]pyrazin-5-amine] and `CCOc1nc2[nH]c(C(F)(F)F)nc2nc1Nc1ccc(OC(F)(F)F)cc1F` [Compound 2-38, 6-ethoxy-N-(2-fluoro-4-(trifluoromethoxy)phenyl)-2-(trifluoromethyl)-1H-imidazo[4,5-b]pyrazin-5-amine] cannot be ordered by EC50: no more than 5 µM for the first, 5 to 20 µM for the second.

`CC(C)Oc1nc2nc(C(F)(F)F)[nH]c2nc1Nc1ccc(C(F)(F)F)cc1` [Compound 2-45, 5-isopropoxy-2-(trifluoromethyl)-N-(4-(trifluoromethyl)phenyl)-1H-imidazo[4,5-b]pyrazin-6-amine] and `Oc1nc2[nH]c(C(F)(F)F)nc2nc1Nc1ccc(C(F)(F)F)cc1` [Compound 2-55, 5-((4-(trifluoromethyl)phenyl)amino)-2-(trifluoromethyl)-1H-imidazo[4,5-b]pyrazin-6-ol] cannot be ordered by EC50: greater than 20 µM for the first, greater than 20 µM for the second.

First: FC(F)(F)c1ccc(Nc2nc3[nH]c(C(F)(F)F)nc3nc2Oc2ccc(C(F)(F)F)cc2)cc1 [Compound 2-47, 2-(trifluoromethyl)-5-(4-(trifluoromethyl)phenoxy)-N-(4-(trifluoromethyl)phenyl)-1H-imidazo[4,5-b]pyrazin-6-amine]
Second: CCOc1nc2[nH]c(C(F)(F)F)nc2nc1Nc1ccc(OC(F)(F)F)cc1 [Compound 2-37, 6-ethoxy-N-(4-(trifluoromethoxy)phenyl)-2-(trifluoromethyl)-1H-imidazo[4,5-b]pyrazin-5-amine]
The EC50 of the first is lower: no more than 5 µM for the first, greater than 20 µM for the second. The first is the more potent here.

First: COc1nc2[nH]c(C(F)(F)F)nc2nc1Nc1ccc(Cl)cc1 [Compound 2-26, 6-methoxy-N-(4-chlorophenyl)-2-(trifluoromethyl)-1H-imidazo[4,5-b]pyrazin-5-amine]
Second: COc1nc2[nH]c(C(F)(F)F)nc2nc1Nc1ccc(OC(F)(F)F)c(Cl)c1 [Compound 2-43, N-(3-chloro-4-(trifluoromethoxy)phenyl)-6-methoxy-2-(trifluoromethyl)-1H-imidazo[4,5-b]pyrazin-5-amine]
The EC50 of the first is lower: 5 to 20 µM for the first, greater than 20 µM for the second.

First: COc1nc2nc(C(F)(F)F)[nH]c2cc1Nc1ccc(OC(F)(F)F)cc1 [Compound 2-62, 5-methoxy-N-(4-(trifluoromethoxy)phenyl)-2-(trifluoromethyl)-1H-imidazo[4,5-b]pyridin-6-amine]
Second: COc1nc2nc(C(F)(F)F)[nH]c2cc1Nc1cccc(OC(F)(F)F)c1 [Compound 2-63, 5-methoxy-N-(3-(trifluoromethoxy)phenyl)-2-(trifluoromethyl)-1H-imidazo[4,5-b]pyridin-6-amine]
The EC50 of the first is lower: 5 to 20 µM for the first, greater than 20 µM for the second. The first is the more potent here.

`COc1nc2[nH]c(C(F)(F)F)nc2nc1Nc1ccc(C(F)(F)F)cc1F` [Compound 2-14, 6-methoxy-N-(2-fluoro-4-(trifluoromethyl)phenyl)-2-(trifluoromethyl)-1H-imidazo[4,5-b]pyrazin-5-amine] and `COc1nc2[nH]c(C(F)(F)F)nc2nc1Nc1ccccc1C(F)(F)F` [Compound 2-17] cannot be ordered by EC50: no more than 5 µM for the first, no more than 5 µM for the second.

`COc1ccc(Nc2cc3nc(C(F)(F)F)[nH]c3nc2OC)cc1` [Compound 2-69, 5-methoxy-N-(4-methoxyphenyl)-2-(trifluoromethyl)-3H-imidazo[4,5-b]pyridin-6-amine] and `COc1nc2[nH]c(C(F)(F)F)nc2cc1Nc1ccc(OC(F)(F)F)cc1C` [Compound 2-74, 5-methoxy-N-(2-methyl-4-(trifluoromethoxy)phenyl)-2-(trifluoromethyl)-3H-imidazo[4,5-b]pyridin-6-amine] cannot be ordered by EC50: no more than 5 µM for the first, no more than 5 µM for the second.

Compared with `COc1nc2nc(C(F)(F)F)[nH]c2cc1Nc1ccc(OC(F)(F)F)cc1F` [Compound 2-66, N-(2-fluoro-4-(trifluoromethoxy)phenyl)-5-methoxy-2-(trifluoromethyl)-1H-imidazo[4,5-b]pyridin-6-amine], `COc1nc2nc(C(F)(F)F)[nH]c2cc1Nc1cccc(C(F)(F)F)c1` [Compound 2-65, 5-methoxy-2-(trifluoromethyl)-N-(3-(trifluoromethyl)phenyl)-1H-imidazo[4,5-b]pyridin-6-amine] is higher in EC50: no more than 5 µM for the first, greater than 20 µM for the second. The first is the more potent here.

`COc1nc2[nH]c(C(F)(F)F)nc2cc1Nc1cc(C(F)(F)F)cc(C(F)(F)F)c1` [Compound 2-72, N-(3,5-bis(trifluoromethyl)phenyl)-5-methoxy-2-(trifluoromethyl)-3H-imidazo[4,5-b]pyridin-6-amine] and `COc1nc2[nH]c(C(F)(F)F)nc2cc1Nc1cccc(F)c1F` [Compound 2-68, N-(2,3-Difluorophenyl)-5-methoxy-2-(trifluoromethyl)-3H-imidazo[4,5-b]pyridin-6-amine] fall in the same range of EC50: 5 to 20 µM for the first, 5 to 20 µM for the second.

Compared with `CCCCOc1nc2[nH]c(C(F)(F)F)nc2nc1Nc1ccc(OC(F)(F)F)cc1` [Compound 2-35, 6-butoxy-N-(4-(trifluoromethoxy)phenyl)-2-(trifluoromethyl)-1H-imidazo[4,5-b]pyrazin-5-amine], `COc1nc2[nH]c(C(F)(F)F)nc2nc1Nc1ccc(OC(F)(F)F)c(F)c1` [Compound 2-13, 6-methoxy-N-(3-fluoro-4-(trifluoromethoxy)phenyl)-2-(trifluoromethyl)-1H-imidazo[4,5-b]pyrazin-5-amine] is lower in EC50: greater than 20 µM for the first, 5 to 20 µM for the second.

First: Oc1nc2[nH]c(C(F)(F)F)nc2nc1Nc1cccc(C(F)(F)F)c1F [Compound 2-54, 5-((2-fluoro-3-(trifluoromethyl)phenyl)amino)-2-(trifluoromethyl)-1H-imidazo[4,5-b]pyrazin-6-ol]
Second: COc1nc2[nH]c(C(F)(F)C(F)(F)F)nc2nc1Nc1cccc(C(F)(F)F)c1F [Compound 2-34]
The EC50 of the first is higher: greater than 20 µM for the first, 5 to 20 µM for the second. The second is the more potent here.

system: Male C57BL/6J mice on western diet; assay: Diet induced obesity mouse study; format: in vivo; conditions: WD containing 2-21, ~40 mg/kg/day, after 28 days of WD
From the text: FIG. 1. Diet induced obesity reversal data, for mice given a regular chow diet, a Western diet, or a Western diet plus compound 2-21. FIG. 1A, Body mass versus time; FIG. 1B, fat mass (measured by EchoMRI) versus time; FIG. 1C, food intake (last 14 days) versus time.
Male C57BL/6J mice aged 3 months were assigned to either normal chow diet (Chow, n=5) or western diet (WD, n=10) for 28 days. After 28 days half of the WD group were switched to WD containing compound 2-21 at a concentration resulting in consumption of ˜40 mg/kg/day 1-112 (2-21 40 mpk). Body mass (A), fat mass (measured by EchoMRI (B)), and food intake (C. for the final 14 days) were recorded as indicated.

`COc1nc2[nH]c(C(F)(F)F)nc2nc1Nc1ccc(OC(F)(F)F)cc1F` [Compound 2-21, 6-methoxy-N-(2-fluoro-4-(trifluoromethoxy)phenyl)-2-(trifluoromethyl)-1H-imidazo[4,5-b]pyrazin-5-amine] was tested, and the Body mass was “lost body weight”.

For `COc1nc2[nH]c(C(F)(F)F)nc2nc1Nc1ccc(OC(F)(F)F)cc1F` [Compound 2-21, 6-methoxy-N-(2-fluoro-4-(trifluoromethoxy)phenyl)-2-(trifluoromethyl)-1H-imidazo[4,5-b]pyrazin-5-amine], the “Fat mass (measured by EchoMRI)” value was “lost body weight and fat mass”.

same assay, conditions: WD containing 2-21, ~40 mg/kg/day; final 14 days

In the case of `COc1nc2[nH]c(C(F)(F)F)nc2nc1Nc1ccc(OC(F)(F)F)cc1F` [Compound 2-21, 6-methoxy-N-(2-fluoro-4-(trifluoromethoxy)phenyl)-2-(trifluoromethyl)-1H-imidazo[4,5-b]pyrazin-5-amine], the Food intake is reported as “without a significant change in food intake”.
